# Measurements from patent publication US5539125A, “1-azabicyclo[3.3.0]octan derivative, salt thereof, process for the preparation of same and use thereof as hypermotility agents” (Sanwa Kagaku Kenkyusho Co., Ltd., priority 1994, dated 1996).
# Counter-ions that a name gives are not always drawn.
# Biological target: T1, 5-HT4 receptor (Rattus norvegicus, UniProt Q62758)
# T1 construct: muscular sample of mucous membrane in esophgus exentrated from a rat; from tissue; host or cells: rat oesophagus, muscularis mucosae (isolated tissue contracted with carbachol)
# Test: Agonisting Action to 5-HT4 Receptor: relaxation of carbachol-contracted muscular sample of mucous membrane in rat esophagus
# Settings: negative logarithm of concentration causing 50% relaxation
# From the text: Pharmacol.", Vol. 343, page 439 (1991)].
# Namely, a relaxation of the Test and Control compounds in various concentration showing to carbachol contradiction of a muscular sample of mucous membrane in esophgus exentrated from a rat was checked to calculate a concentration causing 50% relaxation and compared with its negative logarithm (P EC50).
# T1 sequence (Q62758 whole entry): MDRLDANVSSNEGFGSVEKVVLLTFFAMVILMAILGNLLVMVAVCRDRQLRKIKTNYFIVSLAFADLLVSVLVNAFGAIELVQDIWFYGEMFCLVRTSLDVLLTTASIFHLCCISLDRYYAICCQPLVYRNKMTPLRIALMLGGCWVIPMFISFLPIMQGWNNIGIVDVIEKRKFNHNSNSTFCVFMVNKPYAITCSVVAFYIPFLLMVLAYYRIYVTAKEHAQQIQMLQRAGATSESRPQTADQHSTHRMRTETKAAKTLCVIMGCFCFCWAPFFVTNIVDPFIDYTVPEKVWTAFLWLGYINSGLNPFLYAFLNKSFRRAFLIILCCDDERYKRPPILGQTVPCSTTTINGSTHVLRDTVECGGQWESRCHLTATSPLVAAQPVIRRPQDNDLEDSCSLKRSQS
Structure (SMILES),EC50 [nM],pEC50
"CCOc1c(C(=O)NCCC23CCCN2CCC3)cc(Cl)c2c1CCN2 [Example 2, N-[2-(1-Azabicyclo[3.3.0]octan-5-yl)ethyl]-7-chloro-2,3-dihydro-4-ethoxyindole-5-carboxamide. 1/2 fumarate]",5010,–
"CCCc1c(N)c(Cl)cc(C(=O)NCCC23CCCN2CCC3)c1OCC [Example 7, 4-Amino-N-[2-(1-azabicyclo[3.3.0]octan-5-yl)ethyl]-5-chloro-2-ethoxy-3-propylbenzamide. 1/2 fumarate]",398,–
"C=CCc1c(N)c(Cl)cc(C(=O)NCCC23CCCN2CCC3)c1OC [Example 8, 4-Amino-N-[2-(1-azabicyclo[3.3.0]octan-5-yl)ethyl]-5-chloro-2-methoxy-3-(2-propenyl)benzamide. 1/2 fumarate]",–,6.3
"C=CCc1c(N)c(Cl)cc(C(=O)NCCC23CCCN2CCC3)c1OCC [Example 9, 4-Amino-N-[2-(1-azabicyclo[3.3.0]octan-5-yl)ethyl]-5-chloro-2-ethoxy-3-(2-propenyl)benzamide. 1/2 fumarate]",–,6.3
"COc1c(C(=O)NCCC23CCCN2CCC3)cc(Cl)c2c1CCN2 [Example 1, N-[2-(1-Azabicyclo[3.3.01]octan-5-yl)ethyl]-7-chloro-2,3-dihydro-4-methoxyindole-5-carboxamide. 1/2 fumarate]",5010,–
"Cc1oc2c(C(=O)NCCC34CCCN3CCC4)ccc(N)c2c1Cl [Example 3, 4-Amino-N-[2-(1-Azabicyclo[3.3.0]octan-5-yl)ethyl]-3-chloro-2-methylbenzo[b]furan-7-carboxamide.1/2 fumarate]",2000,–
"CCCc1c(N)c(Cl)cc(C(=O)NCCC23CCCN2CCC3)c1OC [Example 6, 4-Amino-N-[2-(1-azabicyclo[3.3.0]octan-5-yl)ethyl]-5-chloro-2-methoxy-3-propylbenzamide. 1/2 fumarate]",501,–
"Cc1oc2c(C(=O)NCCC34CCCN3CCC4)cc(Cl)c(N)c2c1Cl [Example 5, 4-Amino-N-[2-(1-azabicyclo[3.3.0]octan-5yl)ethyl]-3,5-dichloro-2-methylbenzo[b]furan-7-carboxamide. 1/2 fumarate]",794,–
"Cc1cc2c(N)c(Cl)cc(C(=O)NCCC34CCCN3CCC4)c2o1 [Example 4, 4-Amino-N-[2-(1-azabicyclo[3.3.0]octan-5-yl)ethyl]-5-chloro-2-methylbenzo[b]furan-7-carboxamide. 1/2 fumarate]",39.8,–

# Tested on: dopamine D2 receptor
# Test: not given
# Settings: rat, in vivo, po, 100 mg/kg
# From the text: The compounds (salts) obtained by Examples as well as known compound (Metoclopramide) were selected as Test and Control Compounds, respectively. The compound was orally administered to rats to observe for 2 days general symptoms including catalepsy and blepharoptosis due to antagonistic action of the compound to dopamine D2 receptor.
row,Structure (SMILES),influence to central nerve system due to anti-dopamine action
1,"CCN(CC)CCNC(=O)c1cc(Cl)c(N)cc1OC [Metoclopramide, 4-amino-5-chloro-N-[(2-diethylamino)ethyl]-2-methoxybenzamide]",somewhat remarkable influence was recognized
